Reference: PubChem BioAssay (NCI)
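GI50 = concentration required for 50% inhibition of growth. TGI denotes the concentration required for complete inhibition of growth.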

Legend:
Test in all cases: NCI anticancer screen, dose series, 384-well format
TK-10 renal = system: TK-10 renal
HCC-2998 colon = system: HCC-2998 colon
U251 glioblastoma = system: U251 glioblastoma
NCI-H226 lung = system: NCI-H226 lung
SR leukemia = system: SR leukemia
A498 renal = system: A498 renal
LOX IMVI melanoma = system: LOX IMVI melanoma
SK-OV-3 ovarian = system: SK-OV-3 ovarian
EKVX NSCLC = system: EKVX NSCLC
RXF 393 renal = system: RXF 393 renal
ACHN renal = system: ACHN renal
CAKI-1 renal = system: CAKI-1 renal
SF-268 CNS = system: SF-268 CNS
HL-60(TB) leukemia = system: HL-60(TB) leukemia
MALME-3M melanoma = system: MALME-3M melanoma
COLO 205 colon = system: COLO 205 colon
NCI-H23 lung = system: NCI-H23 lung
NCI-H322M lung = system: NCI-H322M lung
MCF7 breast = system: MCF7 breast
SN12C renal = system: SN12C renal
MOLT-4 leukemia = system: MOLT-4 leukemia
UO-31 renal = system: UO-31 renal
NCI-H460 NSCLC = system: NCI-H460 NSCLC
IGROV1 ovarian = system: IGROV1 ovarian
SF-295 CNS = system: SF-295 CNS
SNB-75 CNS = system: SNB-75 CNS
MDA-MB-231 breast = system: MDA-MB-231 breast
PC-3 prostate = system: PC-3 prostate
K-562 leukemia = system: K-562 leukemia
SK-MEL-28 melanoma = system: SK-MEL-28 melanoma
HS 578T breast = system: HS 578T breast
NCI-H522 lung = system: NCI-H522 lung
NCI/ADR-RES ovarian = system: NCI/ADR-RES ovarian
SF-539 CNS = system: SF-539 CNS
KM12 colon = system: KM12 colon
M14 melanoma = system: M14 melanoma
SW-620 colon = system: SW-620 colon
UACC-257 melanoma = system: UACC-257 melanoma
OVCAR-4 ovarian = system: OVCAR-4 ovarian
MDA-MB-468 breast = system: MDA-MB-468 breast
MDA-MB-435 melanoma = system: MDA-MB-435 melanoma
DU-145 prostate = system: DU-145 prostate
CCRF-CEM leukemia = system: CCRF-CEM leukemia
OVCAR-3 ovarian = system: OVCAR-3 ovarian
RPMI-8226 leukemia = system: RPMI-8226 leukemia
OVCAR-8 ovarian = system: OVCAR-8 ovarian
SK-MEL-5 melanoma = system: SK-MEL-5 melanoma
HOP-62 NSCLC = system: HOP-62 NSCLC
SNB-19 CNS = system: SNB-19 CNS
A549 NSCLC = system: A549 NSCLC
HOP-92 NSCLC = system: HOP-92 NSCLC
T-47D breast = system: T-47D breast
786-0 renal = system: 786-0 renal
HCT-15 colon = system: HCT-15 colon
HT29 colon = system: HT29 colon
HCT-116 colon = system: HCT-116 colon
BT-549 breast = system: BT-549 breast
OVCAR-5 ovarian = system: OVCAR-5 ovarian
SK-MEL-2 melanoma = system: SK-MEL-2 melanoma
UACC-62 melanoma = system: UACC-62 melanoma

## O=C(Nc1cc(F)c(F)cc1C(=O)O)c1ccc(-n2ccnc2)nn1
TK-10 renal
  GI50: > 100 µM
  TGI: > 100 µM
HCC-2998 colon
  GI50: > 100 µM
  TGI: > 100 µM
U251 glioblastoma
  GI50: > 100 µM
  TGI: > 100 µM
NCI-H226 lung
  GI50: > 100 µM
  TGI: > 100 µM
SR leukemia
  GI50: 23.3 µM
  TGI: 49.7 µM
A498 renal
  GI50: > 100 µM
  TGI: > 100 µM
LOX IMVI melanoma
  GI50: > 100 µM
  TGI: > 100 µM
SK-OV-3 ovarian
  GI50: > 100 µM
  TGI: > 100 µM
EKVX NSCLC
  GI50: > 100 µM
  TGI: > 100 µM
RXF 393 renal
  GI50: > 100 µM
  TGI: > 100 µM
ACHN renal
  GI50: > 100 µM
  TGI: > 100 µM
CAKI-1 renal
  GI50: > 100 µM
  TGI: > 100 µM
SF-268 CNS
  GI50: > 100 µM
  TGI: > 100 µM
HL-60(TB) leukemia
  GI50: > 100 µM
  TGI: > 100 µM
MALME-3M melanoma
  GI50: > 100 µM
  TGI: > 100 µM
COLO 205 colon
  GI50: > 100 µM
  TGI: > 100 µM
NCI-H23 lung
  GI50: > 100 µM
  TGI: > 100 µM
NCI-H322M lung
  GI50: > 100 µM
  TGI: > 100 µM
MCF7 breast
  GI50: > 100 µM
  TGI: > 100 µM
SN12C renal
  GI50: > 100 µM
  TGI: > 100 µM
MOLT-4 leukemia
  GI50: > 100 µM
  TGI: > 100 µM
UO-31 renal
  GI50: > 100 µM
  TGI: > 100 µM
NCI-H460 NSCLC
  GI50: > 100 µM
  TGI: > 100 µM
IGROV1 ovarian
  GI50: > 100 µM
  TGI: > 100 µM
SF-295 CNS
  GI50: > 100 µM
  TGI: > 100 µM
SNB-75 CNS
  GI50: > 100 µM
  TGI: > 100 µM
MDA-MB-231 breast
  GI50: > 100 µM
  TGI: > 100 µM
PC-3 prostate
  GI50: > 100 µM
  TGI: > 100 µM
K-562 leukemia
  GI50: 50.6 µM
  TGI: > 100 µM
SK-MEL-28 melanoma
  GI50: > 100 µM
  TGI: > 100 µM
HS 578T breast
  GI50: > 100 µM
  TGI: > 100 µM
NCI-H522 lung
  GI50: 65.1 µM
  TGI: > 100 µM
NCI/ADR-RES ovarian
  GI50: > 100 µM
  TGI: > 100 µM
SF-539 CNS
  GI50: > 100 µM
  TGI: > 100 µM
KM12 colon
  GI50: > 100 µM
  TGI: > 100 µM
M14 melanoma
  GI50: > 100 µM
  TGI: > 100 µM
SW-620 colon
  GI50: > 100 µM
  TGI: > 100 µM
UACC-257 melanoma
  GI50: > 100 µM
  TGI: > 100 µM
OVCAR-4 ovarian
  GI50: > 100 µM
  TGI: > 100 µM
MDA-MB-468 breast
  GI50: 29.2 µM
  TGI: > 100 µM
MDA-MB-435 melanoma
  GI50: > 100 µM
  TGI: > 100 µM
DU-145 prostate
  GI50: > 100 µM
  TGI: > 100 µM
CCRF-CEM leukemia
  GI50: > 100 µM
  TGI: > 100 µM
OVCAR-3 ovarian
  GI50: > 100 µM
  TGI: > 100 µM
RPMI-8226 leukemia
  GI50: > 100 µM
  TGI: > 100 µM
OVCAR-8 ovarian
  GI50: > 100 µM
  TGI: > 100 µM
SK-MEL-5 melanoma
  GI50: 57.9 µM
  TGI: > 100 µM
HOP-62 NSCLC
  GI50: > 100 µM
  TGI: > 100 µM
SNB-19 CNS
  GI50: > 100 µM
  TGI: > 100 µM
A549 NSCLC
  GI50: > 100 µM
  TGI: > 100 µM
HOP-92 NSCLC
  GI50: > 100 µM
  TGI: > 100 µM
T-47D breast
  GI50: > 100 µM
  TGI: > 100 µM
786-0 renal
  GI50: > 100 µM
  TGI: > 100 µM
HCT-15 colon
  GI50: > 100 µM
  TGI: > 100 µM
HT29 colon
  GI50: > 100 µM
  TGI: > 100 µM
HCT-116 colon
  GI50: > 100 µM
  TGI: > 100 µM
BT-549 breast
  GI50: > 100 µM
  TGI: > 100 µM
OVCAR-5 ovarian
  GI50: > 100 µM
  TGI: > 100 µM

## C=CCNC1=C2C[C@@H](C)C[C@H](OC)[C@H](O)[C@@H](C)/C=C(\C)[C@H](OC(N)=O)[C@@H](OC)/C=C\C=C(/C)C(=O)NC(=CC1=O)C2=O
TK-10 renal
  GI50: 0.0357 µM
  TGI: 13.5 µM
U251 glioblastoma
  GI50: 0.0262 µM
  TGI: 0.167 µM
NCI-H226 lung
  GI50: 0.0333 µM
  TGI: 0.44 µM
SR leukemia
  GI50: 0.011 µM
  TGI: 0.0253 µM
A498 renal
  GI50: 0.0345 µM
  TGI: 12.4 µM
SK-OV-3 ovarian
  GI50: 0.0148 µM
  TGI: 0.0995 µM
EKVX NSCLC
  GI50: 0.0448 µM
  TGI: 0.419 µM
RXF 393 renal
  GI50: 0.0165 µM
  TGI: 0.0656 µM
ACHN renal
  GI50: 0.0832 µM
  TGI: 12 µM
CAKI-1 renal
  GI50: 0.14 µM
  TGI: 14.7 µM
SF-268 CNS
  GI50: 0.0274 µM
  TGI: 11.1 µM
HL-60(TB) leukemia
  GI50: 0.031 µM
  TGI: 0.169 µM
MALME-3M melanoma
  GI50: < 0.01 µM
  TGI: 0.282 µM
COLO 205 colon
  GI50: < 0.01 µM
  TGI: 0.011 µM
NCI-H322M lung
  GI50: < 0.01 µM
  TGI: 10.1 µM
MCF7 breast
  GI50: < 0.01 µM
  TGI: 0.0416 µM
SN12C renal
  GI50: 0.0172 µM
  TGI: 0.255 µM
MOLT-4 leukemia
  GI50: 0.145 µM
  TGI: 0.336 µM
UO-31 renal
  GI50: 0.34 µM
  TGI: 12 µM
NCI-H460 NSCLC
  GI50: < 0.01 µM
  TGI: 1.61 µM
IGROV1 ovarian
  GI50: 0.0271 µM
  TGI: 0.281 µM
SK-MEL-2 melanoma
  GI50: < 0.01 µM
  TGI: 0.112 µM
SF-295 CNS
  GI50: 0.0219 µM
  TGI: 0.121 µM
SNB-75 CNS
  GI50: 0.0138 µM
  TGI: 0.0738 µM
MDA-MB-231 breast
  GI50: 0.422 µM
  TGI: 2.24 µM
PC-3 prostate
  GI50: 0.0229 µM
  TGI: 0.124 µM
K-562 leukemia
  GI50: 0.0276 µM
  TGI: 10.3 µM
SK-MEL-28 melanoma
  GI50: 0.0295 µM
  TGI: 15.2 µM
HS 578T breast
  GI50: < 0.01 µM
  TGI: 0.0202 µM
NCI-H522 lung
  GI50: 0.0136 µM
  TGI: 0.0474 µM
SF-539 CNS
  GI50: 0.0139 µM
  TGI: 0.0361 µM
KM12 colon
  GI50: < 0.01 µM
  TGI: 0.0115 µM
M14 melanoma
  GI50: < 0.01 µM
  TGI: 11.4 µM
SW-620 colon
  GI50: 0.016 µM
  TGI: 10.9 µM
UACC-257 melanoma
  GI50: 0.0274 µM
  TGI: 1.35 µM
UACC-62 melanoma
  GI50: 0.0118 µM
  TGI: 0.0535 µM
OVCAR-4 ovarian
  GI50: 0.158 µM
  TGI: 12 µM
MDA-MB-468 breast
  GI50: 0.18 µM
  TGI: 0.733 µM
MDA-MB-435 melanoma
  GI50: 0.034 µM
  TGI: 13.7 µM
OVCAR-3 ovarian
  GI50: 0.0371 µM
  TGI: 0.447 µM
OVCAR-8 ovarian
  GI50: 0.0422 µM
  TGI: 0.205 µM
SK-MEL-5 melanoma
  GI50: < 0.01 µM
  TGI: 2.9 µM
HOP-62 NSCLC
  GI50: 0.0204 µM
  TGI: 1.75 µM
SNB-19 CNS
  GI50: 0.0508 µM
  TGI: 10.8 µM
A549 NSCLC
  GI50: < 0.01 µM
  TGI: 10.5 µM
HOP-92 NSCLC
  GI50: 0.716 µM
  TGI: 3.14 µM
T-47D breast
  GI50: 0.838 µM
  TGI: 6.16 µM
786-0 renal
  GI50: 0.0657 µM
  TGI: 0.271 µM
HCT-15 colon
  GI50: 0.0519 µM
  TGI: 5.34 µM
HT29 colon
  GI50: < 0.01 µM
  TGI: 10.7 µM
HCT-116 colon
  GI50: 0.0365 µM
  TGI: 8.32 µM
BT-549 breast
  GI50: < 0.01 µM
  TGI: 0.0312 µM
OVCAR-5 ovarian
  GI50: 0.0592 µM
  TGI: 12.6 µM
